According to paper PMC6264295, “Studies on Log Po/w of Quinoxaline di-N-Oxides: A Comparison of RP-HPLC Experimental and Predictive Approaches” (Molecules, 2011):

Tests used:
[1] = RP-HPLC determination of capacity factors and log Po/w (Supelcosil LC-ABZ, MOPS buffer pH 7.4/methanol); details: for log k’0: capacity factor extrapolated to 0% methanol; for RP-HPLC log Po/w: from log k’0 by Equation (1); for Capacity factors log k’40: 40% methanol; for Capacity factors log k’40 / Capacity factors log k’50 / Capacity factors log k’60 / Capacity factors log k’70: MOPS buffer pH 7.4; for Capacity factors log k’50: 50% methanol; for Capacity factors log k’60: 60% methanol; for Capacity factors log k’70: 70% methanol; for Capacity factors log k’0: extrapolated to 0% methanol; for chromatographic logP: pH 7.4, RP-HPLC log Po/w
Experimental: The RP-HPLC methods of Minick and Lombardo [53] were considered for estimating the n-octanol/water partition coefficients (log Po/w) of QdO. The inorganic salts and the reference compounds were, at least, of analytical grade (Sigma Aldrich and Fluka) and used without further purification. HPLC-grade methanol, n-octanol (Sigma-Aldrich) and bi-distilled water were used to prepare the mobile phase.
The other chromatographic conditions were: flow 1.0 mL/min^−1; isocratic elution, UV-visible detector set at the wavelength with maximum absorbance (260 and 210 nm). The test solutions were 0.3 mM in the desired compound. All the experiments were performed at 25 ± 2 °C at least twice.
The capacity factors were calculated according to Equation (2): […]
In order to judge if the experimentally measured log k’0 can be used to predict the log Po/w value, a calibration curve was created with the capacity factors of the reference compounds and a linear regression equation between the log Po/w and log k’0 was determined.
The robustness of the model and its predictivity were evaluated by the leave-one-out (LOO) cross-validation procedure. According to this procedure, the log Po/w value of each compound in the reference data set is predicted by the equations derived from all the other compounds except the predicted one. At the end of this procedure two values are available for each reference compound, the reference shake-flask log Po/w value (yi) and the predicted one (ŷi). […] The regression coefficient (R^2LOO) is defined by Equation (5): [drawing 8] (5) where [drawing 9] is the mean of the reference shake-flask log Po/w value and n is the number of reference compounds. A high value of R^2LOO indicates a good predictive ability of the model. The root mean squared error in prediction (RMSELOO) is calculated with Equation (6): [drawing 10] (6)

[2] = design: method as in earlier work; details: reduction peak potential; cited from earlier work
[3] = reference compounds, leave-one-out cross-validation

| Structure (SMILES) | log k’0 ([1]; reference compounds, pH 7.4) | RP-HPLC log Po/w ([1]; reference compounds) | LOO-predicted RP-HPLC log Po/w [1, 3] | LOO-predicted RP-HPLC log Po/w ([1]; pH 7.4) | Capacity factors log k’40 [1] | Capacity factors log k’50 [1] | Capacity factors log k’60 [1] | Capacity factors log k’70 [1] | Capacity factors log k’0 ([1]; pH 7.4) | chromatographic logP [1] | Epc,1 [2] |
| --- | --- | --- | --- | --- | --- | --- | --- | --- | --- | --- | --- |
| Nc1ccccc1 [Compound 2, Aniline, reference compound] | 0.67 | 0.94 | 0.96 |  |  |  |  |  |  |  |  |
| CC(=O)Nc1ccccc1 [Compound 3, Acetanilide, reference compound] | 0.88 | 1.15 |  | 1.19 |  |  |  |  |  |  |  |
| CC(=O)c1ccccc1 [Compound 4, Acetophenone, reference compound] | 1.27 | 1.54 |  | 1.52 |  |  |  |  |  |  |  |
| c1ccccc1 [Compound 5, Benzene, reference compound] | 1.87 | 2.14 |  |  |  |  |  |  |  |  |  |
| Clc1ccccc1 [Compound 6, Chlorobenzene, reference compound] | 2.62 | 2.89 | 2.90 |  |  |  |  |  |  |  |  |
| Brc1ccccc1 [Compound 7, Bromobenzene, reference compound] | 2.84 |  |  |  |  |  |  |  |  |  |  |
| c1ccc2ccccc2c1 [Compound 8, Naphthalene, reference compound] | 3.15 | 3.42 |  |  |  |  |  |  |  |  |  |
| Cc1c(C(=O)NCc2ccccc2)[n+]([O-])c2ccccc2[n+]1[O-] [Compound 10] |  |  |  |  | 0.28 | −0.05 | −0.34 | −0.64 | 1.49 | 1.76 |  |
| Cc1ccc2c(c1)[n+]([O-])c(C(=O)NCc1ccccc1)c(C)[n+]2[O-] [Compound 11] |  |  |  |  | 0.35 | 0.07 | −0.24 | −0.56 | 1.58 | 1.85 | −1.658 |
| Cc1c(C(=O)NCc2ccccc2)[n+]([O-])c2cc(Cl)ccc2[n+]1[O-] [Compound 12] |  |  |  |  | 0.65 | 0.30 | −0.05 | −0.36 | 1.98 | 2.25 | −1.482 |
| Cc1c(C(=O)NCc2ccccc2)[n+]([O-])c2cc(Cl)c(Cl)cc2[n+]1[O-] [Compound 13] |  |  |  |  | 0.98 | 0.66 | 0.27 | −0.11 | 2.46 | 2.72 | −1.211 |
| Cc1c(C(=O)NCCc2ccccc2)[n+]([O-])c2ccccc2[n+]1[O-] [Compound 14] |  |  |  |  | 0.36 | 0.05 | −0.26 | −0.58 | 1.61 | 1.88 | −1.625 |
| Cc1ccc2c(c1)[n+]([O-])c(C(=O)NCCc1ccccc1)c(C)[n+]2[O-] [Compound 15] |  |  |  |  | 0.47 | 0.21 | −0.13 | −0.45 | 1.73 | 2 | −1.649 |
| Cc1c(C(=O)NCCc2ccccc2)[n+]([O-])c2cc(Cl)ccc2[n+]1[O-] [Compound 16] |  |  |  |  | 0.69 | 0.36 | 0.00 | −0.37 | 2.11 | 2.38 | −1.525 |
| Cc1c(C(=O)NCCc2ccccc2)[n+]([O-])c2cc(Cl)c(Cl)cc2[n+]1[O-] [Compound 17] |  |  |  |  | 1.07 | 0.74 | 0.34 | −0.06 | 2.60 | 2.87 | −1.387 |
| Cc1c(C(=O)NCc2ccc(Br)cc2)[n+]([O-])c2ccccc2[n+]1[O-] [Compound 18] |  |  |  |  | 0.85 | 0.48 | 0.11 | −0.24 | 2.30 | 2.57 | −1.540 |
| Cc1ccc2c(c1)[n+]([O-])c(C(=O)NCc1ccc(Br)cc1)c(C)[n+]2[O-] [Compound 19] |  |  |  |  | 0.94 | 0.60 | 0.21 | −0.16 | 2.43 | 2.69 | −1.580 |
| Cc1c(C(=O)NCc2ccc(Br)cc2)[n+]([O-])c2cc(Cl)ccc2[n+]1[O-] [Compound 20] |  |  |  |  | 1.22 | 0.84 | 0.42 | 0.02 | 2.83 | 3.09 | −1.445 |
| Cc1c(C(=O)NCc2ccc(Br)cc2)[n+]([O-])c2cc(Cl)c(Cl)cc2[n+]1[O-] [Compound 21] |  |  |  |  | 1.60 | 1.15 | 0.65 | 0.19 | 3.51 | 3.78 | −1.363 |
| Cc1ccc(CNC(=O)c2c(C)[n+]([O-])c3cc(Cl)c(Cl)cc3[n+]2[O-])cc1 [Compound 25] |  |  |  |  | 1.33 | 0.93 | 0.54 | 0.14 | 2.91 | 3.18 |  |
